{
  "source": "patent US8883827B2",
  "about": "“Azole derivatives as WTN pathway inhibitors” (Oslo University Hospital HF, priority 2009, dated 2014)",
  "key": {"[1]": {"target": "T1, MKP5(h) (Homo sapiens, UniProt Q9Y6W6)", "T1 construct": "purchased Millipore (KinaseProfiler service)", "T1 sequence (Q9Y6W6 whole entry)": "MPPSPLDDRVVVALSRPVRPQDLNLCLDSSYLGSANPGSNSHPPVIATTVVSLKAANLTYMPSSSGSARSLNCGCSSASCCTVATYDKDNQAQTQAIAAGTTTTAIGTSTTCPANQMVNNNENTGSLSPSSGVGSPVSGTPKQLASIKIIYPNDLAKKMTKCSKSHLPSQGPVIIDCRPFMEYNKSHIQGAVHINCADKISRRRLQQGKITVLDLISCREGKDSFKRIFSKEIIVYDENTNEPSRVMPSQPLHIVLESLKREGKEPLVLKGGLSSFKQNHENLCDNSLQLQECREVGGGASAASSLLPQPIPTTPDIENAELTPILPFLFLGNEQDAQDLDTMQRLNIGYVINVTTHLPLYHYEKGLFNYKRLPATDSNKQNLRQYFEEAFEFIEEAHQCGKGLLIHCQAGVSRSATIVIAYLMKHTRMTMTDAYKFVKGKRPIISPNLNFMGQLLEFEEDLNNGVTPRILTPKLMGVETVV", "experiment": "Phosphatase screen", "type": "biochemical", "conditions": "0.1% DMSO control = 100%"}, "[2]": {"target": "T2, CaMKI(h) (Homo sapiens, UniProt Q14012)", "T2 construct": "purchased Millipore (KinaseProfiler service)", "experiment": "Kinase screen", "type": "biochemical", "conditions": "0.1% DMSO control = 100%"}, "[3]": {"target": "T3, PKBα(h) (Homo sapiens, UniProt P31749)", "T3 construct": "purchased Millipore (KinaseProfiler service)", "T3 sequence (P31749 whole entry)": "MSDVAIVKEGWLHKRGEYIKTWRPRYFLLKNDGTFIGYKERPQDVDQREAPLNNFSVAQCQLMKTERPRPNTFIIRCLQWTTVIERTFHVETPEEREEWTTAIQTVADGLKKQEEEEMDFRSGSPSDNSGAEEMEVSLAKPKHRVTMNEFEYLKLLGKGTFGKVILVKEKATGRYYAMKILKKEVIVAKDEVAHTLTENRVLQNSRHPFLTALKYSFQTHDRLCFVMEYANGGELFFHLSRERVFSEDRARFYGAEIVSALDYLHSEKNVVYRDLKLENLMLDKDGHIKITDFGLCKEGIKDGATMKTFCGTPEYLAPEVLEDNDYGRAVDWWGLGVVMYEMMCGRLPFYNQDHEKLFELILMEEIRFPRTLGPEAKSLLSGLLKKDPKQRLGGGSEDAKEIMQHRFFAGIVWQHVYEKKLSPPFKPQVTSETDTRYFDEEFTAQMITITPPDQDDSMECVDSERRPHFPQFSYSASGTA", "experiment": "Kinase screen", "type": "biochemical", "conditions": "0.1% DMSO control = 100%"}, "[4]": {"target": "T4, MST1(h) (Homo sapiens, UniProt Q13043)", "T4 construct": "purchased Millipore (KinaseProfiler service)", "T4 sequence (Q13043 whole entry)": "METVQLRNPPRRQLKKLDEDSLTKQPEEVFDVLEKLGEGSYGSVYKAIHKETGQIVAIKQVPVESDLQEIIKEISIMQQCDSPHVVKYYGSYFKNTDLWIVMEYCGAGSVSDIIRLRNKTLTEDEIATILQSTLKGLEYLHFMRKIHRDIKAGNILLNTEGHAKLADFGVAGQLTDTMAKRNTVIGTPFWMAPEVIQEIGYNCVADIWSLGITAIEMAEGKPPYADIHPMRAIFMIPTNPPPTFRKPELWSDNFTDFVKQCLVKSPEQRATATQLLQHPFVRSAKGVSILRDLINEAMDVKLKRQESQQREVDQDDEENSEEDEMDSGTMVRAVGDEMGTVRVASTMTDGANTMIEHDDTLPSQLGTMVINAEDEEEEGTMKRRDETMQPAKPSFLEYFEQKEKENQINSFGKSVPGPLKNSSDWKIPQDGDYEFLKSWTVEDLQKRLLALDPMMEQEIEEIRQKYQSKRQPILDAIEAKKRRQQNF", "experiment": "Kinase screen", "type": "biochemical", "conditions": "0.1% DMSO control = 100%"}, "[5]": {"system": "Apc^Min mice", "experiment": "Tumour growth in Apc^Min mice", "type": "in vivo", "protocol": "Cages containing three C57BL/6 females were crossed with one C57BL/6J-Apc^Min male. The mice were fed with 2018SX Teklad Global 18% Protein Extruded Rodent Diet (Harlan™). 5-7 day old pups were randomized and divided into two treatment groups; the test group was treated with compound (1) and the control group treated with control vehicle (1% Tween®80—Sigma). Test solutions were administered daily by subcutaneous injection into the back of the neck (10 μl solution per gram of animal weight, solution 15 mg/ml compound). Two day injection intermissions followed after every fifth injection day. At the age of 21 days, mice were genotyped and Apc^Min animals were sorted into a males and females. At the same time, subcutaneous injection of the solutions was substituted by oral administration. For oral application, compound (1) was dissolved in DMSO to […]. DMSO alone was used as a vehicle control (5 μl solution per gram of animal weight, solution 30 mg/ml). Administration was terminated at the age of 9 weeks and animals euthanased. The small intestine and colon of each animal was dissected, fixed in 10% PFA and stained with 1% methylene blue. Intestines were divided into anonymous and coded samples before manual analysis by microscopy. The frequency, distribution and size of the tumors were quantified. The mice were weighted twice a week throughout the experiment. All animal experiments were approved by local ethics authorities at Forsøksdyrutvalget, Oslo, Norway, and were carried out following accepted ethical standards. […] For each statistical comparison, a Shapiro-Wilk normality test was performed along with a Students t-test if passed (P>0.05). When normality could not be achieved in the Shapiro-Wilk test, a Mann-Whitney rank sum test was used instead of Students t-test. The α-level was set to 0.05 and a difference with P<0.05 was considered to be statistically significant. Sample size (n), median, range, maximum, minimum, mean, standard deviation, standard error, and confidence intervals (C.I. of mean) are listed."}, "[6]": {"target": "T5, PTP-1B(h) (Homo sapiens, UniProt P18031)", "T5 construct": "purchased Millipore (KinaseProfiler service)", "T5 sequence (P18031 whole entry)": "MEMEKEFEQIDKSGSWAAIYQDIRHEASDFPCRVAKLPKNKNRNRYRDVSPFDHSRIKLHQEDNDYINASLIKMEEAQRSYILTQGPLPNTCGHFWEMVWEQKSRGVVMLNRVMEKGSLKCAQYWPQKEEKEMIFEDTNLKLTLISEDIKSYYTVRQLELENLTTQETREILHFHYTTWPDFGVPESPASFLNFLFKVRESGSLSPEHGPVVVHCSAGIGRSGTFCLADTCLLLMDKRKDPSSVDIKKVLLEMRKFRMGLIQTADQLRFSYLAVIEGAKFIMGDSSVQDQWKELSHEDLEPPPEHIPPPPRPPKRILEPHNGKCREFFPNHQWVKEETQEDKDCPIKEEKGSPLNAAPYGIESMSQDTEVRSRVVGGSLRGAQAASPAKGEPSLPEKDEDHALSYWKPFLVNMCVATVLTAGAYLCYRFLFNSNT", "experiment": "Phosphatase screen", "type": "biochemical", "conditions": "0.1% DMSO control = 100%"}, "[7]": {"system": "SW480 colorectal cells", "experiment": "SW480 xenograft in CB17/SCID mice", "type": "in vivo", "protocol": "SW480 colorectal cells were injected subcutaneously into CB17/SCID mice and palpable tumors were detected within 7 days in 50% of the mice. Randomized groups of mice were injected (i.p.) daily with compound No. 1 at doses of […] or 30 mg/kg (delivered daily for five days followed by a 2-day pause) at termination, plasma was collected and tumors were isolated and weighed. 40 female […] (Taconic) were injected subcutaneously (s.c.) at the right posterior flank with 10^7 SW480 cells diluted in 100 μl PBS. Injections were initiated when tumor formation was visible in 50% of the animals (7 days). Mice were randomized and divided into three treatment groups: 150 mg/kg compound No. 1, 300 mg/kg compound No. 1 and vehicle control 1% Tween® 80 (Sigma). Daily injections (200 μl, i.p.) followed (two day injection intermissions after every fifth injection day) until experiment end (29 days). At the termination day, 24 hours after the last injection, blood was collected after cardiac puncture and the tumors were removed and weighed. The compound concentration in plasma and tumors was determined using an on-line and off-line Solid Phase Extraction-Capillary Liquid Chromatography ([…]) instrumentation coupled to a Time of Flight (TOF) mass spectrometer, as previously described (Wilson, S. R. et al., J. Sep. Sci. 28: 1751-1758, 2005). A Zorbax SB C18 5 μm 150×0.3 mm column (Agilent, […], Calif., USA) was used for separation, and a Knauer K-2600 UV detector was used as a complimentary detector. RNA was isolated from representative groups of tumors (n=5) and analysed by real-time RT-PCR as described in Example 25 for expression of Sp5. Results were calculated as the ratio of expression of Sp5 to a control gene (hGUSB). As described in standard protocols, immunostaining was performed with rabbit polyclonal smooth muscle actin (Abcam) and monoclonal β-catenin (BD Transduction LaboratoriesTM), both diluted 1:1000. Secondary antibodies used were 1:500 diluted Alexa Fluor® 594 goat anti-rabbit antibody and Alexa Fluor® 488 goat anti-mouse antibody. The sections were imaged by a Zeiss Axiovert 200M Fluorescence/Live cell Imaging Microscope with X^40 magnification and the same exposure times."}, "[8]": {"target": "T6, CK2α2(h) (Homo sapiens, UniProt P19784)", "T6 construct": "purchased Millipore (KinaseProfiler service)", "T6 sequence (P19784 whole entry)": "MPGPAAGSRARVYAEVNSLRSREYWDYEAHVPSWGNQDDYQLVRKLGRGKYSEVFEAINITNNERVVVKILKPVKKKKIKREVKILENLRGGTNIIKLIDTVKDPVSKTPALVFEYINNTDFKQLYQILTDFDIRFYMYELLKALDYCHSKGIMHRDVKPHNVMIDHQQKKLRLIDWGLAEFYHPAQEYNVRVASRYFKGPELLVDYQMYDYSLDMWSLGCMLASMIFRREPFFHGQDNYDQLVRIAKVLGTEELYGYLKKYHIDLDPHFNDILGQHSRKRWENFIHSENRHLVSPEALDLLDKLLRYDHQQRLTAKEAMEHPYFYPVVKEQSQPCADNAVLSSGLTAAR", "experiment": "Kinase screen", "type": "biochemical", "conditions": "0.1% DMSO control = 100%"}, "[9]": {"system": "canonical Wnt signaling activated by β-catenin constructs", "experiment": "ST-Luc reporter in HEK293 cells co-transfected with β-catenin variants", "conditions": "10 or 25 μM, 24 h", "method": "These included full-length β-catenin, β-catenin with point mutations at N-terminal phosphorylation sites (dominant active, da-Cat), N-terminal deletion of β-catenin (ΔN-Cat) as another dominant active form, and β-catenin C-terminal transactivation domain fused to LEF-1 (CLEF) functioning as dominant active LEF-1. Plasmid amounts used for transfections were diminished to nanograms per 48-well plate to obtain a pathway induction in the range of 10-20 fold.\nTransfection was performed as described in Example 22, but using β-catenin variants co-transfected in the following plasmid combinations:\n1) 0.215 μg SuperTOPFlash+0.02 μg Renilla+0.015 μg β-catenin;\n2) 0.23 μg SuperTOPFlash+0.02 μg Renilla+0.2 ng da-Cat (dominant active β-catenin (S33, 37, 41 and 45A mutated);\n3) 0.23 μg SuperTOPFlash+0.02 μg Renilla+0.2 ng ΔN-Cat (N-terminal deleted β-catenin; and\n4) 0.23 μg SuperTOPFlash+0.02 μg Renilla+0.2 ng CLEF (β-catenin transactivation domain fused to LEF-1)."}, "[10]": {"target": "T7, PTP MEG1(h) (Homo sapiens, UniProt P29074)", "T7 construct": "purchased Millipore (KinaseProfiler service)", "T7 sequence (P29074 whole entry)": "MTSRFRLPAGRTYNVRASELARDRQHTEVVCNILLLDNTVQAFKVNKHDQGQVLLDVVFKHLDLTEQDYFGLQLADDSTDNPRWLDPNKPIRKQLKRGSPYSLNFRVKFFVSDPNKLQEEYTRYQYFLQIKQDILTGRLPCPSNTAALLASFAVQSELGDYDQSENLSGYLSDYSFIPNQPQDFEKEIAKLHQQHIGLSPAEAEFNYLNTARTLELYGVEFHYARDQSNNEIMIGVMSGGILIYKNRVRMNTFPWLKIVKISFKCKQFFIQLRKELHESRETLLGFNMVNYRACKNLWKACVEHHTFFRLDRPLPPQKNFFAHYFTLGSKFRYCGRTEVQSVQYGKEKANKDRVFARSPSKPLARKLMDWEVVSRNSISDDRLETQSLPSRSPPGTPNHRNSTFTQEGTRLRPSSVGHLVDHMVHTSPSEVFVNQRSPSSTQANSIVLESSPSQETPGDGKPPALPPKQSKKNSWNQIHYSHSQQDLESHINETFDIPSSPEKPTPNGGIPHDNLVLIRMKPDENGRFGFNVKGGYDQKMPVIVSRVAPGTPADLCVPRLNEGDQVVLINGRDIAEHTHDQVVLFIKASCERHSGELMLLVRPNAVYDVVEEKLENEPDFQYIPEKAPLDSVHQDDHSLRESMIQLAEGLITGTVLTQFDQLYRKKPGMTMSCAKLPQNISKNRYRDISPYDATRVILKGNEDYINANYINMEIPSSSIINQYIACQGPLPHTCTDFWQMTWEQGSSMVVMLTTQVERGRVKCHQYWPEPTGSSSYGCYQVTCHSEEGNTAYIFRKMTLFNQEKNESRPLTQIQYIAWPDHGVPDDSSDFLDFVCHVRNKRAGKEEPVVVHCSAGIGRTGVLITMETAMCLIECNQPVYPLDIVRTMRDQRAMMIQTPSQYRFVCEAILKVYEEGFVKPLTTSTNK", "experiment": "Phosphatase screen", "type": "biochemical", "conditions": "0.1% DMSO control = 100%"}, "[11]": {"system": "YopH(y)", "conditions": "10 μM"}, "[12]": {"target": "T8, Rse(h) (Homo sapiens, UniProt Q06418)", "T8 construct": "purchased Millipore (KinaseProfiler service)", "T8 sequence (Q06418 41-890)": "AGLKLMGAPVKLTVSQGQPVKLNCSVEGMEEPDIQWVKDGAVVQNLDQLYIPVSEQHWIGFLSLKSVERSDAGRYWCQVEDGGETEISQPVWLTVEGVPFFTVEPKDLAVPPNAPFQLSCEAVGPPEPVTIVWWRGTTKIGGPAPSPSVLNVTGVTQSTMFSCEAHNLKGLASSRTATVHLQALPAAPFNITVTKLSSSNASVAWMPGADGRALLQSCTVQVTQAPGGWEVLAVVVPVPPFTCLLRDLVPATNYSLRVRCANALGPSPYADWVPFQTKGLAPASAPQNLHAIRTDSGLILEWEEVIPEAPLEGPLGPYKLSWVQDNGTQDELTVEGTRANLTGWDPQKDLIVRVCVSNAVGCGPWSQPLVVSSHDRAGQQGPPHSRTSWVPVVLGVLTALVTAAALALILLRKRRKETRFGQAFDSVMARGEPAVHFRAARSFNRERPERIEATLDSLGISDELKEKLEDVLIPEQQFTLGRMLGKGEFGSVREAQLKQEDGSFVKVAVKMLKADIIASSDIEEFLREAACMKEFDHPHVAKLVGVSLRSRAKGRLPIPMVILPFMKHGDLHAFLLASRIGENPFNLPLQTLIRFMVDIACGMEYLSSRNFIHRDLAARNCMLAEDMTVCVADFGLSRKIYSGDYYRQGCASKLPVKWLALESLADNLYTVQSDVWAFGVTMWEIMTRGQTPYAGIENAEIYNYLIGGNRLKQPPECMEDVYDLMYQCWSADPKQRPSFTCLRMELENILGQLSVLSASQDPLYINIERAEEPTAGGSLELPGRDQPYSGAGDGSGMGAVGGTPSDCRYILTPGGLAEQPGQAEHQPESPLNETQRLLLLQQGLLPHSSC", "experiment": "Kinase screen", "type": "biochemical", "conditions": "0.1% DMSO control = 100%"}, "[13]": {"target": "T9, Rsk1(h) (Homo sapiens, UniProt Q15418)", "T9 construct": "purchased Millipore (KinaseProfiler Service)", "T9 sequence (Q15418 whole entry)": "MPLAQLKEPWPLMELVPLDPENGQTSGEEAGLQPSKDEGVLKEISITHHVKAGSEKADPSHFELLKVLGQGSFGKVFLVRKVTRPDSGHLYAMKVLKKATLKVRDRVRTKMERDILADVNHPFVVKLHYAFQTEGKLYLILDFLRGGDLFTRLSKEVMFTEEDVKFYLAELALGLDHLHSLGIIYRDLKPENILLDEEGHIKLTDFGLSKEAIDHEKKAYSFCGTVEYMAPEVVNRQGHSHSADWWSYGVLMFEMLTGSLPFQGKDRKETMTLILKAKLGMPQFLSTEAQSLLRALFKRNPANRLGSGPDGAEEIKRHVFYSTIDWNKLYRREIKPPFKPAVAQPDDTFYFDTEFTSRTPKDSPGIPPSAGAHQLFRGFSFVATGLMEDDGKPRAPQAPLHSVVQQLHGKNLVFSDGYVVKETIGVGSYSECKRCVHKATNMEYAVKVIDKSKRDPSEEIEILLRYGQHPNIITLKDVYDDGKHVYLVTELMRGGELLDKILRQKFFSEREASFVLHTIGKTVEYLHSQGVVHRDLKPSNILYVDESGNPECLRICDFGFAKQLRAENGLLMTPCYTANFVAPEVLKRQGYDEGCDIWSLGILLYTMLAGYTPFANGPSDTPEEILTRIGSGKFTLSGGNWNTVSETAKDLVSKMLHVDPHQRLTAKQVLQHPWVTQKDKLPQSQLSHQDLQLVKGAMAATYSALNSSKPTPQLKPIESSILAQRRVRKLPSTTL", "experiment": "Kinase screen", "type": "biochemical", "conditions": "0.1% DMSO control = 100%"}, "[14]": {"conditions": "Test female, s.c. then oral 150 mg/kg, to age 9 weeks"}, "[15]": {"conditions": "Test male, s.c. then oral 150 mg/kg, to age 9 weeks"}},
  "note": "Where “and” joins values, the source holds several entries; their conditions need not be identical. Identical values can stand only once.",
  "data": [
    {"smiles": "COc1ccc(-n2c(SCc3nc(-c4ccc(C)cc4)no3)nnc2-c2ccncc2)cc1", "note": "[Compound 1]", "values": [
      {"measurement": "activity at 10 µM", "setting": "[1]", "value": 99, "unit": "%"},
      {"measurement": "activity at 10 µM", "setting": "[2]", "value": 97, "unit": "%"},
      {"measurement": "activity at 10 µM", "setting": "[3]", "value": 79, "unit": "%"},
      {"measurement": "activity at 10 µM", "setting": "[4]", "value": 106, "unit": "%"},
      {"measurement": "number of colon tumours, Max", "setting": "[5]; Test (male + female), control max 6", "value": 2},
      {"measurement": "number of small intestine tumours, Max", "setting": "[5]; Test (male + female), control max 295", "value": 53},
      {"measurement": "number of colon tumours, Mean", "setting": "[5]; Test (male + female), control mean 1.783, P=0.003", "value": "0.42 and 0.429"},
      {"measurement": "number of small intestine tumours, Mean", "setting": "[5]; Test (male + female), control mean 74.8, P=0.036", "value": 36.1},
      {"measurement": "number of colon tumours, Median", "setting": "[5]; Test (male + female), control median 1", "value": 0},
      {"measurement": "number of small intestine tumours, Median", "setting": "[5]; Test (male + female), control median 45", "value": 35},
      {"measurement": "number of colon tumours, Min", "setting": "[5]; Test (male + female), control min 0", "value": 0},
      {"measurement": "number of small intestine tumours, Min", "setting": "[5]; Test (male + female), control min 25", "value": 19},
      {"measurement": "number of small intestine tumours, Max", "setting": "[5]; [14]", "value": 51},
      {"measurement": "number of small intestine tumours, Mean", "setting": "[5]; [14]", "value": 33.5},
      {"measurement": "number of small intestine tumours, Median", "setting": "[5]; [14]", "value": 33},
      {"measurement": "number of small intestine tumours, Min", "setting": "[5]; [14]", "value": 19},
      {"measurement": "number of small intestine tumours, Max", "setting": "[5]; [15]", "value": 53},
      {"measurement": "number of small intestine tumours, Mean", "setting": "[5]; [15]", "value": 39.1},
      {"measurement": "number of small intestine tumours, Median", "setting": "[5]; [15]", "value": 37},
      {"measurement": "number of small intestine tumours, Min", "setting": "[5]; [15]", "value": 22},
      {"measurement": "difference in the bodyweight of male or female mice", "setting": "[5]; after the treatments, versus vehicle group", "value": "No substantial difference"},
      {"measurement": "tumour frequencies among size classes between 0.10 mm^2 and 3.20 mm^2, small intestine", "setting": "[5]; compared to control", "value": "drastically reduced"},
      {"measurement": "tumours in the last two-thirds of the small intestine", "setting": "[5]; compared to control", "value": "substantially fewer tumours"},
      {"measurement": "total tumor load in the small intestine (sum of all tumors in mm^2/n)", "setting": "[5]; control 38.1 mm^2/subject", "value": 16.4, "unit": "mm^2/subject"},
      {"measurement": "activity at 10 µM", "setting": "[6]", "value": 105, "unit": "%"},
      {"measurement": "reduction in tumor size, on average", "setting": "[7]; 150 mg/kg i.p. daily (5 days on, 2 off), 29 days", "value": 33, "unit": "%"},
      {"measurement": "reduction in tumor size, on average", "setting": "[7]; 300 mg/kg i.p. daily (5 days on, 2 off), 29 days", "value": 35, "unit": "%"},
      {"measurement": "adverse side effects, such as weight loss, during treatment", "setting": "[7]; 150 or 300 mg/kg i.p., 29 days", "value": "No obvious adverse side effects"},
      {"measurement": "SP5 mRNA in tumors (real-time RT-PCR, relative to hGUSB)", "setting": "[7]; both 150 mg/kg and 300 mg/kg doses", "value": "down-regulated"},
      {"measurement": "activity at 10 µM", "setting": "[8]", "value": 104, "unit": "%"},
      {"measurement": "activation of canonical Wnt signaling by full-length β-catenin", "setting": "[9]", "value": "reduced"},
      {"measurement": "activation of the pathway by CLEF", "setting": "[9]", "value": "not significantly antagonized"},
      {"measurement": "activation of the pathway by da-Cat", "setting": "[9]", "value": "not significantly antagonized"},
      {"measurement": "activation of the pathway by ΔN-Cat", "setting": "[9]", "value": "not significantly antagonized"},
      {"measurement": "activity at 10 µM", "setting": "[10]", "value": 92, "unit": "%"},
      {"measurement": "Activity (%)", "setting": "[11]", "value": 94, "unit": "%"},
      {"measurement": "activity at 10 µM", "setting": "[12]", "value": 108, "unit": "%"},
      {"measurement": "activity at 10 µM", "setting": "[13]", "value": 108, "unit": "%"}
    ]}
  ]
}
